According to ChEMBL document CHEMBL3885881, “DrugMatrix”:

Organism: Rattus norvegicus
Test: DrugMatrix - Regimen: Daily Repeat
Format: toxicity, organism-based, Sprague-Dawley
Parameters: regimen Daily Repeat, gender Male, age 6-8 weeks
Settings: in vivo, po, route oral GAVAGE, vehicle .5 % CMC; for ABSOLUTE BASOPHIL / ABSOLUTE EOSINOPHIL / ABSOLUTE LYMPHOCYTE / ABSOLUTE MONOCYTE / ABSOLUTE SEGMENTED NEUTROPHIL / BASOPHIL / EOSINOPHIL / ERYTHROCYTE COUNT / HEMATOCRIT / HEMOGLOBIN / LEUKOCYTE COUNT / LYMPHOCYTE / MEAN CORPUSCULAR HEMOGLOBIN / MEAN CORPUSCULAR HEMOGLOBIN CONCENTRATION / MEAN CORPUSCULAR VOLUME / MONOCYTE / NEUTROPHIL / NUCLEATED RED BLOOD CELLS / PLATELET COUNT: tissue Blood; for ALANINE AMINOTRANSFERASE / ALBUMIN / ALKALINE PHOSPHATASE / ASPARTATE AMINOTRANSFERASE / BLOOD UREA NITROGEN / CARBON DIOXIDE / CHLORIDE / CHOLESTEROL / CREATINE PHOSPHOKINASE / CREATININE / GLUCOSE / LACTATE DEHYDROGENASE / LIPASE / PHOSPHORUS / POTASSIUM / SODIUM / TOTAL BILIRUBIN / TOTAL PROTEIN / URIC ACID: tissue Plasma
[1] = 1 mg/kg, 72 h, dose level Low, time 3 day
[2] = 1 mg/kg, 120 h, dose level Low, time 5 day
[3] = 68 mg/kg, 72 h, dose level High, time 3 day
[4] = 68 mg/kg, 120 h, dose level High, time 5 day

SMILES: C[C@]12C=CC(=O)C=C1CC[C@@H]1[C@@H]2C(=O)C[C@@]2(C)[C@H]1CC[C@]2(O)C(=O)CO [PREDNISONE]
- ABSOLUTE BASOPHIL [1]: 0 CELLS/uL
- ABSOLUTE EOSINOPHIL [1]: 0 CELLS/uL
- ABSOLUTE LYMPHOCYTE [1]: 13566 CELLS/uL
- ABSOLUTE MONOCYTE [1]: 151.33 CELLS/uL
- ABSOLUTE SEGMENTED NEUTROPHIL [1]: 1516 CELLS/uL
- BASOPHIL [1]: 0%
- EOSINOPHIL [1]: 0%
- ERYTHROCYTE COUNT [1]: 5.56 x10E6/uL
- HEMATOCRIT [1]: 34.8%
- HEMOGLOBIN [1]: 13.33 G/DL
- LEUKOCYTE COUNT [1]: 15.23 x10E3/uL
- LYMPHOCYTE [1]: 89%
- MEAN CORPUSCULAR HEMOGLOBIN [1]: 24 pg
- MEAN CORPUSCULAR HEMOGLOBIN CONCENTRATION [1]: 38.33 G/DL
- MEAN CORPUSCULAR VOLUME [1]: 62.6 fL
- MONOCYTE [1]: 1%
- NEUTROPHIL [1]: 10%
- NUCLEATED RED BLOOD CELLS [1]: 0.33 /100WBC
- PLATELET COUNT [1]: 1291 x10E3/uL
- ALANINE AMINOTRANSFERASE [1]: 51.67 u/L
- ALBUMIN [1]: 4.43 G/DL
- ALKALINE PHOSPHATASE [1]: 455.67 u/L
- ASPARTATE AMINOTRANSFERASE [1]: 87.33 u/L
- BLOOD UREA NITROGEN [1]: 16 mg/dL
- CARBON DIOXIDE [1]: 24 mmol/L
- CHLORIDE [1]: 107.33 MEQ/L
- CHOLESTEROL [1]: 68.67 mg/dL
- CREATINE PHOSPHOKINASE [1]: 294.67 u/L
- CREATININE [1]: 0.23 mg/dL
- GLUCOSE [1]: 153.33 mg/dL
- LACTATE DEHYDROGENASE [1]: 398.67 u/L
- LIPASE [1]: 10.67 u/L
- PHOSPHORUS [1]: 13.37 mg/dL
- POTASSIUM [1]: 7 MEQ/L
- SODIUM [1]: 149 MEQ/L
- TOTAL BILIRUBIN [1]: 0.27 mg/dL
- TOTAL PROTEIN [1]: 6.23 G/DL
- URIC ACID [1]: 1.53 mg/dL
- ABSOLUTE BASOPHIL [2]: 0 CELLS/uL
- ABSOLUTE EOSINOPHIL [2]: 43 CELLS/uL
- ABSOLUTE LYMPHOCYTE [2]: 10491.67 CELLS/uL
- ABSOLUTE MONOCYTE [2]: 227.33 CELLS/uL
- ABSOLUTE SEGMENTED NEUTROPHIL [2]: 1004.67 CELLS/uL
- BASOPHIL [2]: 0%
- EOSINOPHIL [2]: 0.33%
- ERYTHROCYTE COUNT [2]: 6.03 x10E6/uL
- HEMATOCRIT [2]: 38.43%
- HEMOGLOBIN [2]: 14.23 G/DL
- LEUKOCYTE COUNT [2]: 11.77 x10E3/uL
- LYMPHOCYTE [2]: 89%
- MEAN CORPUSCULAR HEMOGLOBIN [2]: 23.67 pg
- MEAN CORPUSCULAR HEMOGLOBIN CONCENTRATION [2]: 37.03 G/DL
- MEAN CORPUSCULAR VOLUME [2]: 63.87 fL
- MONOCYTE [2]: 2%
- NEUTROPHIL [2]: 8.67%
- NUCLEATED RED BLOOD CELLS [2]: 0 /100WBC
- PLATELET COUNT [2]: 1197.33 x10E3/uL
- ALANINE AMINOTRANSFERASE [2]: 65 u/L
- ALBUMIN [2]: 4.63 G/DL
- ALKALINE PHOSPHATASE [2]: 455 u/L
- ASPARTATE AMINOTRANSFERASE [2]: 98.67 u/L
- BLOOD UREA NITROGEN [2]: 16.33 mg/dL
- CARBON DIOXIDE [2]: 24 mmol/L
- CHLORIDE [2]: 104.67 MEQ/L
- CHOLESTEROL [2]: 69.33 mg/dL
- CREATINE PHOSPHOKINASE [2]: 336 u/L
- CREATININE [2]: 0.19 mg/dL
- GLUCOSE [2]: 168.67 mg/dL
- LACTATE DEHYDROGENASE [2]: 329 u/L
- LIPASE [2]: 10.33 u/L
- PHOSPHORUS [2]: 15.57 mg/dL
- POTASSIUM [2]: 7.49 MEQ/L
- SODIUM [2]: 147.77 MEQ/L
- TOTAL BILIRUBIN [2]: 0.17 mg/dL
- TOTAL PROTEIN [2]: 6.6 G/DL
- URIC ACID [2]: 2.67 mg/dL
- ABSOLUTE BASOPHIL [3]: 0 CELLS/uL
- ABSOLUTE EOSINOPHIL [3]: 35 CELLS/uL
- ABSOLUTE LYMPHOCYTE [3]: 7367 CELLS/uL
- ABSOLUTE MONOCYTE [3]: 79.33 CELLS/uL
- ABSOLUTE SEGMENTED NEUTROPHIL [3]: 1085.33 CELLS/uL
- BASOPHIL [3]: 0%
- EOSINOPHIL [3]: 0.33%
- ERYTHROCYTE COUNT [3]: 5.88 x10E6/uL
- HEMATOCRIT [3]: 37.6%
- HEMOGLOBIN [3]: 13.93 G/DL
- LEUKOCYTE COUNT [3]: 8.57 x10E3/uL
- LYMPHOCYTE [3]: 86%
- MEAN CORPUSCULAR HEMOGLOBIN [3]: 23.7 pg
- MEAN CORPUSCULAR HEMOGLOBIN CONCENTRATION [3]: 37.07 G/DL
- MEAN CORPUSCULAR VOLUME [3]: 64 fL
- MONOCYTE [3]: 1%
- NEUTROPHIL [3]: 12.67%
- NUCLEATED RED BLOOD CELLS [3]: 0.33 /100WBC
- PLATELET COUNT [3]: 1265.33 x10E3/uL
- ALANINE AMINOTRANSFERASE [3]: 45.33 u/L
- ALBUMIN [3]: 4.9 G/DL
- ALKALINE PHOSPHATASE [3]: 446 u/L
- ASPARTATE AMINOTRANSFERASE [3]: 84 u/L
- BLOOD UREA NITROGEN [3]: 18.33 mg/dL
- CARBON DIOXIDE [3]: 17 mmol/L
- CHLORIDE [3]: 102 MEQ/L
- CHOLESTEROL [3]: 71.33 mg/dL
- CREATINE PHOSPHOKINASE [3]: 290.67 u/L
- CREATININE [3]: 0.2 mg/dL
- GLUCOSE [3]: 148 mg/dL
- LACTATE DEHYDROGENASE [3]: 411.33 u/L
- LIPASE [3]: 11.33 u/L
- PHOSPHORUS [3]: 13.93 mg/dL
- POTASSIUM [3]: 7.66 MEQ/L
- SODIUM [3]: 147.03 MEQ/L
- TOTAL BILIRUBIN [3]: 0.27 mg/dL
- TOTAL PROTEIN [3]: 6.87 G/DL
- URIC ACID [3]: 2.23 mg/dL
- ABSOLUTE BASOPHIL [4]: 0 CELLS/uL
- ABSOLUTE EOSINOPHIL [4]: 26.33 CELLS/uL
- ABSOLUTE LYMPHOCYTE [4]: 7838.33 CELLS/uL
- ABSOLUTE MONOCYTE [4]: 52.67 CELLS/uL
- ABSOLUTE SEGMENTED NEUTROPHIL [4]: 1616 CELLS/uL
- BASOPHIL [4]: 0%
- EOSINOPHIL [4]: 0.33%
- ERYTHROCYTE COUNT [4]: 6.38 x10E6/uL
- HEMATOCRIT [4]: 39.03%
- HEMOGLOBIN [4]: 14.3 G/DL
- LEUKOCYTE COUNT [4]: 9.53 x10E3/uL
- LYMPHOCYTE [4]: 81.33%
- MEAN CORPUSCULAR HEMOGLOBIN [4]: 22.43 pg
- MEAN CORPUSCULAR HEMOGLOBIN CONCENTRATION [4]: 36.63 G/DL
- MEAN CORPUSCULAR VOLUME [4]: 61.17 fL
- MONOCYTE [4]: 0.67%
- NEUTROPHIL [4]: 17.67%
- NUCLEATED RED BLOOD CELLS [4]: 0 /100WBC
- PLATELET COUNT [4]: 1351.33 x10E3/uL
- ALANINE AMINOTRANSFERASE [4]: 47 u/L
- ALBUMIN [4]: 4.67 G/DL
- ALKALINE PHOSPHATASE [4]: 399 u/L
- ASPARTATE AMINOTRANSFERASE [4]: 95.33 u/L
- BLOOD UREA NITROGEN [4]: 19 mg/dL
- CARBON DIOXIDE [4]: 30.67 mmol/L
- CHLORIDE [4]: 103.33 MEQ/L
- CHOLESTEROL [4]: 49 mg/dL
- CREATINE PHOSPHOKINASE [4]: 935.33 u/L
- CREATININE [4]: 0.2 mg/dL
- GLUCOSE [4]: 169 mg/dL
- LACTATE DEHYDROGENASE [4]: 578.33 u/L
- LIPASE [4]: 12.33 u/L
- PHOSPHORUS [4]: 13.23 mg/dL
- POTASSIUM [4]: 6.47 MEQ/L
- SODIUM [4]: 147.4 MEQ/L
- TOTAL BILIRUBIN [4]: 0.27 mg/dL
- TOTAL PROTEIN [4]: 6.8 G/DL
- URIC ACID [4]: 1.87 mg/dL
